Laboratory results taken from article PMC5520047, “Prioritizing multiple therapeutic targets in parallel using automated DNA-encoded library screening” (Nature Communications, 2017).
Converted amounts (≈) assume the structure as drawn. Read-outs that look alike come from different tables or passages of the source.

Legend:
[1] = target: S. aureus isoleucyl-tRNA synthetase (IRS) (Staphylococcus aureus, UniProt P41972); assay: t-RNA synthetase biochemical assay (IRS); details: average of two replicates with s.d.
[2] = system: S. aureus WCUH29 wild type; assay: MIC broth microdilution; type: cell-based, Staphylococcus aureus; details: Staphylococcus aureus, WCUH29WILDTYPE; S. aureus WCUH29 wild type; read-out: MIC
[3] = system: A. baumannii BM4652 efflux mutant, pRK415 and pRK415-UppS; assay: microbe, parasite or virus in culture; type: cell-based, Acinetobacter baumannii; details: 30 μg/ml polymyxin B nonapeptide; for MIC: Acinetobacter baumannii; for Fold MIC increase: pRK415-UppS overexpressing strain relative to parent strain
[4] = system: E. coli TOP10 ∆TolC, pHN678’ and pHN678’-LolA antisense; assay: MoA study: MIC in lolA antisense expressor; type: cell-based, Escherichia coli; details: for MIC: Escherichia coli
[5] = target: M. tuberculosis Dihydrofolate reductase (DHFR) (Mycobacterium tuberculosis, UniProt P9WNX1); assay: biochemical
M. tuberculosis H37Rv = assay: MIC determination against M. tuberculosis H37Rv (resazurin); type: cell-based; details: Mycobacterium tuberculosis
Description: 409 remaining NADPH to convert resazurin into the fluorescent resorufin14. The assay buffer containing
410 81.4 mM Hepes pH 7.8, 300 mM KCl, 0.4 mg/mL BSA was used to make the enzyme addition containing
411 1.2 μg/mL Mtb DHFR and 50 μM NADPH. This was added in equal volume (5 μL) to a substrate solution
412 composed of 240 µM DHF in H2O and incubated for 50 min. Developing solution was prepared with
413 0.045 mM Resazurin and 0.6 U/ml Diaphorase in 200 mM sodium phosphate buffer pH 7.8 and 5 μL was
414 added. The experiments were conducted in black 384-well plates (Greiner Catalog # 784076) and all
415 liquid additions were conducted using a Multidrop combi (Thermo Scientific). The plate was read on a
416 ViewLux following a 10 minute delay. Resorufin light production was measured using appropriate
417 Viewlux filters: Ex: 525 / 20 Pol (BODIPY TMR FP) Em: 598 / 25 (BODIPY TMR) (B04). Assay plates were
418 pre-dispensed with 100 nL DMSO or with 100 nL compounds dissolved in neat DMSO using an Echo®
419 liquid handler (Labcyte Inc.) where all wells contained compound samples, except wells in columns 6
420 and 18 that contained DMSO control. Column 6 represented 100% Mtb DHFR activity in the absence of
421 GSK compounds. […] Compounds were
422 tested at 1% DMSO in 11 point dose response with a 1:3 dilution and fit to a standard 4 parameter fit to
423 calculate an IC50 value and are reported as the average of two replicates. Standard deviation values
424 were calculated using the n-1 method.
428 Minimum Inhibitory Concentration Assays:
429 MIC determination against M. tuberculosis H37Rv:
430 The measurement of the Minimum Inhibitory Concentration (MIC) against M. tuberculosis H37Rv for
431 each tested compound was performed in 96-well flat-bottom, polystyrene microtiter plates in a final
432 volume of 100 μl. Ten two-fold drug dilutions in neat DMSO starting at 50 mM were performed. Drug […]
440 saline). […] Fluorescence was measured (Spectramax M5 […]
444 Minimum inhibitory concentrations (MICs) of compounds were determined using broth microdilution […]

[6] = system: A. baumannii BM4652 strains; assay: Potentiation of teicoplanin MIC by LpxA compound 4; type: cell-based, Acinetobacter baumannii
[7] = A. baumannii BM4652 efflux mutant + pRK415-UppS
[8] = A. baumannii BM4652 efflux mutant + pRK415
[9] = A. baumannii BM4652 efflux mutant, N/A (no plasmid)

Chain of M. tuberculosis Dihydrofolate reductase (DHFR) (P9WNX1 whole entry): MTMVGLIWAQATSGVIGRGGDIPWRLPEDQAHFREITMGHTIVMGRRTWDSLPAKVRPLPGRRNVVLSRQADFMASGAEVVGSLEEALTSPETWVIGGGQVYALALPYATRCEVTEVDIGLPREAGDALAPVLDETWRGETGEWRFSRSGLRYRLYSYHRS
Chain of S. aureus isoleucyl-tRNA synthetase (IRS) (P41972 whole entry): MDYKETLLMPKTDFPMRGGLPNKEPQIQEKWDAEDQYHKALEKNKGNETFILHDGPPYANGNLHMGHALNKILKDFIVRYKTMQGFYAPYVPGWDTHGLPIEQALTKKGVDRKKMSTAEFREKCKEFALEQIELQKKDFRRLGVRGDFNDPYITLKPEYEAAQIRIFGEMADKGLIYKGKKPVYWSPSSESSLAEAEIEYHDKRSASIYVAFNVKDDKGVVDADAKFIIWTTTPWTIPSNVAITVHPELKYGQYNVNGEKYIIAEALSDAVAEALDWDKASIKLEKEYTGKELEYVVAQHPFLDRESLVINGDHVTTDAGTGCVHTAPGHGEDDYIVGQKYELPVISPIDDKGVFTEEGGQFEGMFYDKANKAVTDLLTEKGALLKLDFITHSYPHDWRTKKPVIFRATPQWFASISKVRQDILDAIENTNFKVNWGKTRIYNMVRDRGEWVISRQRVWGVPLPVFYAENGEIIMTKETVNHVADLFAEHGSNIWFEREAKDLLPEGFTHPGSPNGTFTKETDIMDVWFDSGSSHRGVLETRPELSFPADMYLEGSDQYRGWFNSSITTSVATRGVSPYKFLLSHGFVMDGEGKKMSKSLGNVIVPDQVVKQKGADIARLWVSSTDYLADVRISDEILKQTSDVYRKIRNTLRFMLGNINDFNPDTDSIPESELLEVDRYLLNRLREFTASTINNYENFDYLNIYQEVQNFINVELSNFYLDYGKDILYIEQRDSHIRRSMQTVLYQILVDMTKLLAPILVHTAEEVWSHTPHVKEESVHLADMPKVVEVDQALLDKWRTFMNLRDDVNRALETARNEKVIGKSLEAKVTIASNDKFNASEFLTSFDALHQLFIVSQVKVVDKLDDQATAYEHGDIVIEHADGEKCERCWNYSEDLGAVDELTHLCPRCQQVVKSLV

Compound: CNC(=O)c1cccc(CNCc2cc(C(=O)N3CCN(c4cc(Cl)cc(Cl)c4)CC3)cc(C(C)(C)C)c2)c1 [Compound 2]
- IC50 [1]: 0.75 ± 0.21 µM
- MIC [2]: 4 mg/L (≈ 7.05 µM)

Compound: CC[C@H]1OC(=O)[C@H](C)[C@@H](O[C@H]2C[C@@](C)(OC)[C@@H](O)[C@H](C)O2)[C@H](C)[C@@H](O[C@@H]2O[C@H](C)C[C@H](N(C)C)[C@H]2O)[C@](C)(O)C[C@@H](C)CN(C)[C@H](C)[C@@H](O)[C@]1(C)O [Azithromycin]
- MIC [3, 7]: 0.031 mg/L
- MIC [3, 8]: 0.031 mg/L
- MIC [3, 9]: 0.031 mg/L
- Fold MIC increase [3]: 1 fold
- Fold MIC increase ([3]; listed as azithromycin): unchanged
- MIC ([4]; E. coli TOP10 ∆TolC + pHN678’): 0.0156 mg/L
- MIC ([4]; E. coli TOP10 ∆TolC + pHN678’-LolA antisense): 0.0039 mg/L
- Fold MIC decrease ([4]; lolA antisense plasmid compared to vector alone): 4 fold

Compound: COc1ccc(OC)c(Cc2cnc3nc(N)nc(N)c3c2C)c1 [Compound 8]
- IC50 [5]: 0.61 ± 0.42 µM
- MIC (M. tuberculosis H37Rv): 2.5 µM (≈ 0.813 µg/mL)

Compound: teicoplanin
- MIC of teicoplanin ([6]; A. baumannii BM4652/pRK415-LpxA, compound 4 at 0 µg/ml): > 64 mg/L
- MIC of teicoplanin ([6]; A. baumannii BM4652/pRK415-LpxA, compound 4 at 4 µg/ml): > 64 mg/L
- MIC of teicoplanin ([6]; A. baumannii BM4652/pRK415-LpxA, compound 4 at 8 µg/ml): > 64 mg/L
- MIC of teicoplanin ([6]; A. baumannii BM4652/pRK415-LpxA, compound 4 at 16 µg/ml): > 64 mg/L
- MIC of teicoplanin ([6]; A. baumannii BM4652/pRK415-LpxA, compound 4 at 32 µg/ml): > 64 mg/L
- MIC of teicoplanin ([6]; A. baumannii BM4652/pRK415-LpxA, compound 4 at 64 µg/ml): > 64 mg/L
- MIC of teicoplanin ([6]; A. baumannii BM4652/pRK415-LpxA, compound 4 at 128 µg/ml): > 64 mg/L
- MIC of teicoplanin ([6]; A. baumannii BM4652/pRK415, compound 4 at 0 µg/ml): > 64 mg/L
- MIC of teicoplanin ([6]; A. baumannii BM4652/pRK415, compound 4 at 4 µg/ml): > 64 mg/L
- MIC of teicoplanin ([6]; A. baumannii BM4652/pRK415, compound 4 at 8 µg/ml): > 64 mg/L
- MIC of teicoplanin ([6]; A. baumannii BM4652/pRK415, compound 4 at 16 µg/ml): > 64 mg/L
- MIC of teicoplanin ([6]; A. baumannii BM4652/pRK415, compound 4 at 32 µg/ml): 0.5 mg/L
- MIC of teicoplanin ([6]; A. baumannii BM4652/pRK415, compound 4 at 64 µg/ml): 0.5 mg/L
- MIC of teicoplanin ([6]; A. baumannii BM4652/pRK415, compound 4 at 128 µg/ml): 0.5 mg/L
- MIC of teicoplanin ([6]; A. baumannii BM4652, compound 4 at 0 µg/ml): > 64 mg/L
- MIC of teicoplanin ([6]; A. baumannii BM4652, compound 4 at 4 µg/ml): > 64 mg/L
- MIC of teicoplanin ([6]; A. baumannii BM4652, compound 4 at 8 µg/ml): > 64 mg/L
- MIC of teicoplanin ([6]; A. baumannii BM4652, compound 4 at 16 µg/ml): 16 mg/L
- MIC of teicoplanin ([6]; A. baumannii BM4652, compound 4 at 32 µg/ml): 0.5 mg/L
- MIC of teicoplanin ([6]; A. baumannii BM4652, compound 4 at 64 µg/ml): 0.5 mg/L
- MIC of teicoplanin ([6]; A. baumannii BM4652, compound 4 at 128 µg/ml): 0.5 mg/L

Compound: Cc1cccc(NC(=O)Cc2c(C(=O)O)[nH]c3ccccc23)n1 [Compound 9]
- IC50 ([5]; M. tuberculosis DHFR, average of two replicates with s.d., read-out: IC50): 4.9 ± 2.2 µM
- MIC (M. tuberculosis H37Rv): 80 µM (≈ 24.7 µg/mL)

Compound: CC(C)(O/N=C(\C(=O)N[C@@H]1C(=O)N2C(C(=O)[O-])=C(C[n+]3ccccc3)CS[C@H]12)c1csc(N)n1)C(=O)O [Ceftazidime]
- MIC [3, 7]: 0.5 mg/L
- MIC [3, 8]: 0.5 mg/L
- MIC [3, 9]: 0.5 mg/L
- Fold MIC increase [3]: 1 fold
- Fold MIC increase ([3]; listed as ceftazidime): unchanged
